Format in all cases: biochemical
The target of one test is GST-tagged SIK3 (Homo sapiens (Human), UniProt Q9Y2K2). Description: SIK3 inhibition test (ADP-Glo Max Assay). The settings on record: enzyme 100 nM, AMARA Peptide 100 μM, ATP 1 mM, 2 hours room temperature. The protocol:
(§1) The compounds described in Examples above were used in the SIK1, SIK2, and SIK3 inhibition test.
(§2) The inhibitory activity of the compound for SIK1, SIK2, and SIK3 enzymes was assayed by measuring the amount of ADP, an enzyme reaction product, with ADP-Glo™ Max Assay (Promega). Enzymes, specifically, GST-tagged SIK1 (Carna Biosciences, Inc.), GST-tagged SIK2 (Carna Biosciences, Inc.), and GST-tagged SIK3 (SignalChem) were prepared in a reaction buffer (15 mM tris-hydrochloric acid buffer (pH 7.5), 0.001% Triton X-100, 0.01% BSA) so that the final concentration would be 20 nM, 3 nM, and 100 nM. Enzyme solutions were thus formed. In a reaction buffer, AMARA Peptide (SignalChem) as a substrate with a final concentration of 200 μM (SIK1, SIK2) or 100 μM (SIK3), ATP (Promega) with a final concentration of 1 mM, and magnesium chloride with a final concentration of 5 mM were prepared. Substrate solutions were thus formed. The enzyme solution, the substrate solution, and a DMSO solution of a concentration of the test compound were mixed together and reacted at room temperature for 2 hours. After the reaction, ADP-Glo™ Reagent (Promega) was added, and the reaction was performed at room temperature for 30 minutes. Subsequently, ADP-Glo™ Max Detection Reagent (Promega) was added, and the reaction was performed at room temperature for 30 minutes. The emission by the luciferase reaction was measured with PHERAstar FSX (BMG LABTECH).
(§3) The inhibitory ratio (%) was calculated by: % Inhibition={1−(intensity of sample−intensity of blank (no enzyme solution added))/(intensity of control (DMSO alone)−intensity of blank)}×100. The inhibitory concentration IC50 was calculated based on 16 data values obtained in the concentration response test.
(In ADP-Glo the light output rises with the ADP produced.)

A further test addresses GST-tagged SIK1 (Homo sapiens (Human), UniProt P57059). Put plainly: SIK1 inhibition test (ADP-Glo Max Assay). Conditions: enzyme 20 nM, AMARA Peptide 200 μM, ATP 1 mM, 2 hours room temperature. The protocol: as §1, §2, §3
For another test, the target named is GST-tagged SIK2 (Homo sapiens (Human), UniProt Q9H0K1). Description: SIK2 inhibition test (ADP-Glo Max Assay). Conditions: enzyme 3 nM, AMARA Peptide 200 μM, ATP 1 mM, 2 hours room temperature. The protocol: as §1, §2, §3
Sequence of GST-tagged SIK2 (Q9H0K1 whole entry): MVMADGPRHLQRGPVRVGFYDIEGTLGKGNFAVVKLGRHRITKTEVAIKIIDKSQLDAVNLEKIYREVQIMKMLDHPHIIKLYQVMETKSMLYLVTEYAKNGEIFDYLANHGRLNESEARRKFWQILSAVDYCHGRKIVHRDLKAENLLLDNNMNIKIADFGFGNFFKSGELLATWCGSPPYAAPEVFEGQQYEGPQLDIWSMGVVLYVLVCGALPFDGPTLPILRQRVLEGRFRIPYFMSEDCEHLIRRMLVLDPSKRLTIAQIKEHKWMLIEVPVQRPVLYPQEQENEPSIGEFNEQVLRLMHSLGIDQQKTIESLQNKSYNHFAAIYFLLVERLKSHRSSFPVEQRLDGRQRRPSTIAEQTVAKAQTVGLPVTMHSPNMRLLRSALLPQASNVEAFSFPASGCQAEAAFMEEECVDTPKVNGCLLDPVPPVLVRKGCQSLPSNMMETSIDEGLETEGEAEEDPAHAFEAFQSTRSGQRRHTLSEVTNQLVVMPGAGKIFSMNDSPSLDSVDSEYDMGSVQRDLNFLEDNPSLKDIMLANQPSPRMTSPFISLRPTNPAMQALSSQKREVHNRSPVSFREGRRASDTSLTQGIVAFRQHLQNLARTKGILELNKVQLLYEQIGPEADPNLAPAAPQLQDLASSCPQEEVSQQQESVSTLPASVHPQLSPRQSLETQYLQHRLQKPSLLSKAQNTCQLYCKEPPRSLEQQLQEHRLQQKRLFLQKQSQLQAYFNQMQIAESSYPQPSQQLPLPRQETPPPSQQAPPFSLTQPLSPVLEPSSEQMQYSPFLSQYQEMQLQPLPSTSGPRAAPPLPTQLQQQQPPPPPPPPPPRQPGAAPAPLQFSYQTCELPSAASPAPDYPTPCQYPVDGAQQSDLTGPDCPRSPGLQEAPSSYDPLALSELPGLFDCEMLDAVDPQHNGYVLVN

Sequence of GST-tagged SIK3 (Q9Y2K2 whole entry): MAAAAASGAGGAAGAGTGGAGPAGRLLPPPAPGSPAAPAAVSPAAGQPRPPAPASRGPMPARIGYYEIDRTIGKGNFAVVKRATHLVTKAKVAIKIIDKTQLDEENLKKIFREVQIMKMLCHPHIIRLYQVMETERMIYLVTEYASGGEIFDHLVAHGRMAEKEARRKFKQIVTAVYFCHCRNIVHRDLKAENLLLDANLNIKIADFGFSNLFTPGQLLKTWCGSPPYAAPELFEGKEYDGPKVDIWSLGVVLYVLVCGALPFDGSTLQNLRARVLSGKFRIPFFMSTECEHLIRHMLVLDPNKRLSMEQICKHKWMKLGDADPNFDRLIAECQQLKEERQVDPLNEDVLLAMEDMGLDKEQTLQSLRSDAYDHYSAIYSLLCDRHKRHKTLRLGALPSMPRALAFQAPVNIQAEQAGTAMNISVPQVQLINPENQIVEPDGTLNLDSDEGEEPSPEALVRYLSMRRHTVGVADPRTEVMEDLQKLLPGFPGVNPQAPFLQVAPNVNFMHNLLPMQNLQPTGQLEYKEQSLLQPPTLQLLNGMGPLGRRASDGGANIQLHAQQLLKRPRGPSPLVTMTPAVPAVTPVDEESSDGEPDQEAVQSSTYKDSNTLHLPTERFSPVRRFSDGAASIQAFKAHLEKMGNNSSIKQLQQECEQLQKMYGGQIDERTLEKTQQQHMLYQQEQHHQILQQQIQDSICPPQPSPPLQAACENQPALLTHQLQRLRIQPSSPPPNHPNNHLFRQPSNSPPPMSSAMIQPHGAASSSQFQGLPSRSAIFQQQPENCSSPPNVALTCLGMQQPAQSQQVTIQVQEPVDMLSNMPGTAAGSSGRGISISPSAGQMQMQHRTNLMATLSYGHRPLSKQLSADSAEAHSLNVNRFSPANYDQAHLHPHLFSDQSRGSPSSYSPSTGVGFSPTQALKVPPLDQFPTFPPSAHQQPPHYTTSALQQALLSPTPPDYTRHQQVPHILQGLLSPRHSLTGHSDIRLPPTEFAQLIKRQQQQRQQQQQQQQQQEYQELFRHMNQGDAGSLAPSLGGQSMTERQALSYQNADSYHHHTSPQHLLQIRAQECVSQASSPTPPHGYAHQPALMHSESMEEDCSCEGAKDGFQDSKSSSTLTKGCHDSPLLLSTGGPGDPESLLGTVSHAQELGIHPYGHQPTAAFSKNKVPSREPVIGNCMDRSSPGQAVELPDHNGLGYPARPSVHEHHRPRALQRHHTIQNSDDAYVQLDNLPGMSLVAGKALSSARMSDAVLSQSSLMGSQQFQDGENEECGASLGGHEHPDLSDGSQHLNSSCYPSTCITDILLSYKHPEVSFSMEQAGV
Sequence of GST-tagged SIK1 (P57059 whole entry): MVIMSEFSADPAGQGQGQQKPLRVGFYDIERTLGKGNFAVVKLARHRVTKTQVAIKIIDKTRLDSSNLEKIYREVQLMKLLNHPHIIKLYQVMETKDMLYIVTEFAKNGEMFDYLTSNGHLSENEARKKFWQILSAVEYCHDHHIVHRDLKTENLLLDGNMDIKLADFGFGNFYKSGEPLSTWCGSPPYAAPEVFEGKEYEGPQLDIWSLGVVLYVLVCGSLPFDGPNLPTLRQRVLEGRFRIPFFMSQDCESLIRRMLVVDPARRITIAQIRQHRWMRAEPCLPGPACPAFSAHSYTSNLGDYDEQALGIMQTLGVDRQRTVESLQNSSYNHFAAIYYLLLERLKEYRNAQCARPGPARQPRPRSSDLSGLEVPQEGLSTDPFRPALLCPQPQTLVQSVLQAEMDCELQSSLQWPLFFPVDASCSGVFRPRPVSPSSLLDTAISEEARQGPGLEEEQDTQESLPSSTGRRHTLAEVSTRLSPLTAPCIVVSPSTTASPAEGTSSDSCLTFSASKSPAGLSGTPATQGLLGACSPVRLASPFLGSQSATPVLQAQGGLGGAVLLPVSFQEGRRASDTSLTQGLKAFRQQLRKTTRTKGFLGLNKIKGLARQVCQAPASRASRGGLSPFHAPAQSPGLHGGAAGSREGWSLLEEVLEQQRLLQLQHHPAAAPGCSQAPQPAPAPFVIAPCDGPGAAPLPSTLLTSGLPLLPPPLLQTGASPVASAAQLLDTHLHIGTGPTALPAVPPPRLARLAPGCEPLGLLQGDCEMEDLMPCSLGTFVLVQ

Take `CCOc1cc(-c2cnn(C)c2)cc2nn(C)c(-c3cc(OC)c(C(=O)N4CC(O)(C(F)(F)F)C4)c(OC(F)F)c3)c12` [Example 42, [2-(difluoromethoxy)-4-[4-ethoxy-2-methyl-6-(1-methylpyrazol-4-yl)indazol-3-yl]-6-methoxyphenyl]-[3-hydroxy-3-(trifluoromethyl)azetidin-1-yl]methanone]: the IC50 (commonly the concentration that inhibits the measured activity by half) against GST-tagged SIK3 was 10.5 nM; on GST-tagged SIK1, 2 nM; against GST-tagged SIK2, 12.8 nM.
On the same counts, the results for `COc1cc(-c2c3c(OC(F)F)cc(-c4cnn(C)c4)cc3nn2C)cc2c1C(=O)NC[C@@H]2C` (single isomer, unassigned) [Example 164] are 19.7 nM, 7.1 nM and 2 nM.
The like results for `COc1cc(-c2c3c(OC)cc(-c4cnn(C)c4)cc3nn2C)cc(OC(F)F)c1C(=O)N[C@@H]1C[C@@H]1F` [Example 2, 2-(difluoromethoxy)-N-[(1R,2S)-2-fluorocyclopropyl]-6-methoxy-4-[4-methoxy-2-methyl-6-(1-methylpyrazol-4-yl)indazol-3-yl]benzamide] were, in that order, 7.8 nM, 19.8 nM and 8.3 nM.
Consider `COCCn1cc(-c2cc(C#N)c3c(-c4cc(OC(F)F)c5c(c4)[C@@H](C)CNC5=O)n(C)nc3c2)cn1` (single isomer, unassigned) [Example 173], for which the IC50 stood at 3.5 nM on GST-tagged SIK3, 7.5 nM at GST-tagged SIK1 and 2.1 nM against GST-tagged SIK2.
On the same counts, the results for `COc1cc(-c2c3c(OCCCCO)cc(-c4cnn(C)c4)cc3nn2C)cc(OC(F)F)c1C(=O)N1CC(O)(C(F)(F)F)C1` [Example 44, [2-(difluoromethoxy)-4-[4-(4-hydroxybutoxy)-2-methyl-6-(1-methylpyrazol-4-yl)indazol-3-yl]-6-methoxyphenyl]-[3-hydroxy-3-(trifluoromethyl)azetidin-1-yl]methanone] are 15.5 nM, 6.7 nM and 8.4 nM.
As to `CCn1cc(-c2cc(C#N)c3c(-c4cc(OC)c(C(=O)N[C@@H]5C[C@@H]5F)c(OC(F)F)c4)n(C)nc3c2)cn1` [Example 18, 4-[4-cyano-6-(1-ethylpyrazol-4-yl)-2-methylindazol-3-yl]-2-(difluoromethoxy)-N-[(1R,2S)-2-fluorocyclopropyl]-6-methoxybenzamide], the IC50 on GST-tagged SIK3 was 7 nM; on GST-tagged SIK1 it was 1.4 nM; on GST-tagged SIK2, 3.1 nM.
The like results for `COc1cc(-c2c3c(C#N)cc(-c4cnn(CC5CC5)c4)cc3nn2C)cc(OC(F)F)c1C(N)=O` [Example 138, 4-[4-cyano-6-[1-(cyclopropylmethyl)pyrazol-4-yl]-2-methylindazol-3-yl]-2-(difluoromethoxy)-6-methoxybenzamide] were, in that order, 6.6 nM, 16.9 nM and 7.2 nM.
On the same counts, the results for `COc1cc(-c2c3c(C#N)cc(-c4cnn(CCC5(O)CCC5)c4)cc3nn2C)cc(OC(F)F)c1C(=O)NCC1(F)CC1` [Example 122, 4-[4-cyano-6-[1-[2-(1-hydroxycyclobutyl)ethyl]pyrazol-4-yl]-2-methylindazol-3-yl]-2-(difluoromethoxy)-N-[(1-fluorocyclopropyl)methyl]-6-methoxybenzamide] are 4.4 nM, 15.8 nM and 7.9 nM.
Take `COc1cc(-c2c3c(C#N)cc(-c4cnn(C[C@H](C)O)c4)cc3nn2C)cc(OC(F)F)c1C(N)=O` [Example 125, 4-[4-cyano-6-[1-[(2S)-2-hydroxypropyl]pyrazol-4-yl]-2-methylindazol-3-yl]-2-(difluoromethoxy)-6-methoxybenzamide]: the IC50 on GST-tagged SIK3 is 2.9 nM; against GST-tagged SIK1, 11.5 nM; at GST-tagged SIK2 it was 1.8 nM.

These data come from patent US20260062387A1, “SALT-INDUCIBLE KINASE INHIBITOR COMPOUND AND PHARMACEUTICAL COMPOSITION INCLUDING THE SAME” (MITSUBISHI TANABE PHARMA CORPORATION, priority 2023, published 2026).
